Assay results published in PMC5505701, “Somatostatin binds to the human amyloid β peptide and favors the formation of distinct oligomers” (eLife, 2017).
pEC50: −log10 of the molar value. Entries after “also recorded” stand apart in the source; their conditions may differ. No end group written: not given here.

Experiments:
[1] = system: oligomeric versus monomeric Aβ1-42 (Aβ1-42-biotin bait); assay: Affinity capture interactome Experiment III (oAβ1-42-biotin vs mAβ1-42-biotin); conditions: TMT; for Experiment III oAβ1-42-B/mAβ1-42-B Ratio: oligomeric versus monomeric bait, human frontal lobe digitonin extract, pH 8.0, 4°C overnight
[2] = target: Aβ1-42-TMR (Homo sapiens, UniProt P05067); assay: FRET competition assay (Edans-SST14 / Aβ1-42-TMR)
Chain of Aβ1-42-TMR (P05067 672-713 limits assumed): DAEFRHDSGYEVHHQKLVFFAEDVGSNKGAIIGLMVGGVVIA

[3] = target: T1, Aβ1-40 (Homo sapiens, UniProt P05067); assay: ThT fluorescence Aβ1-40 aggregation assay; assay type: biochemical; conditions: 5 to 10 times higher peptide concentrations
T1 construct: Aβ1-40 (catalog number AS-24236); purchased Anaspec, Inc. (Fremont, CA, USA) AS-24236; host or cells: synthetic peptide
T1 sequence (P05067 672-711 limits assumed): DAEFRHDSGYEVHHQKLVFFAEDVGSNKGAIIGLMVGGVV
From the text: (§1) Next, Western blot analyses of ThT assay fractions were undertaken without or with prior boiling in SDS. […] Only when SDS was present in the sample buffer, low mass bands appeared in the Western blot that migrated at a level expected for the monomeric Aβ peptide, consistent with the interpretation that these peptides were released from larger oligomeric or fibrillar aggregates under denaturing conditions (see also Figure 5).
(§2) Assay procedures were largely based on a protocol described by Sarah Linse’s group ([Hellstrand et al., 2010]). […] 100 μL of peptide solutions were supplemented with 25 μM thioflavin T (ThT) (catalog number T3516, Sigma-Aldrich Canada, Oakville, ON, Canada) and loaded into 96-Well Half-Area Microplates (catalog number 675096, Greiner Bio One International, Kremsmünster, Austria). The subsequent plate incubation proceeded at 37°C with shaking at 700 rpm for 4 of every 5 min in a microplate reader (CLARIOstar, BMG Labtech, Guelph, ON, Canada) for overall durations specified in individual figures. ThT fluorescence was measured every 5 min at excitation and emission wavelengths of 444 nm and 485 nm, respectively.

[4] = target: T2, Aβ1-42 (Homo sapiens, UniProt P05067); assay: Thioflavin T (ThT) fluorescence Aβ1-42 aggregation assay; assay type: biochemical
T2 construct: purchased Anaspec, Inc. (Fremont, CA, USA) AS-24224; host or cells: synthetic peptide
T2 sequence (P05067 672-713 limits assumed): as the sequence (P05067 672-713 limits assumed) above
Experimental: as §2

[5] = system: tau phosphorylated at pSer202/pThr205 (AT8) and pThr231 (AT180) in primary hippocampal neurons; assay: Primary hippocampal neuron tau phosphorylation assay (Western blot); conditions: for effect on oAβ1-42-induced tau hyperphosphorylation: peptide added together with oAβ1-42; for reduction in tau phosphorylation at AT8, pre-aggregated peptide alone: peptide subjected to pre-aggregation step, no Aβ
[6] = target: T2, Aβ1-42; assay: Western blot of ThT assay fractions: oligomeric complexes of Aβ1-42; assay type: biochemical; conditions: for SDS-stable complex with three Aβ1-42 peptides: five-fold increased Aβ1-42 level
From the text: as §1

[7] = target: T2, Aβ1-42; assay: Western blot / silver stain detection of Aβ1-42 after incubation with SST14 or CST17; assay type: biochemical
Experimental: Initially, we were interested in observing the influence of incubation time on sample composition (Figure 5B).

[8] = system: oligomeric Aβ1-42 (oAβ1-42-biotin bait); assay: Affinity capture interactome Experiment II (C-terminally tethered oAβ1-42-biotin vs biotin); conditions: enrichment relative to biotin-only negative control; human frontal lobe digitonin extract; TMT; pH 8.0, 4°C overnight
[9] = system: Aβ1-42 and Aβ17-42 biotin baits; assay: iTRAQ affinity capture with four baits (biotin, biotin-Aβ1-42, Aβ1-42-biotin, Aβ17-42-biotin); assay type: binding; conditions: oAβ1-42-biotin versus N-terminally biotinylated Aβ1-42, Aβ17-42-biotin and biotin; human frontal lobe extract
From the text: This conclusion was strengthened by the fact that this peptide is naturally preceded by a tryptic cleavage site and the exquisite match between observed and in silico predicted fragment ions (Figure 2B). In light of the high intensity ion counts of fragments observed for this peptide and its robust co-enrichment with oAβ1-42-B in three biological replicates (Figure 2C), it first seemed puzzling that the identification of this protein group was not corroborated by other spectra that map to sequences outside of the ‘NFFWK’ sequence stretch. Searching for a plausible explanation, it became apparent that preprosomatostatin and preprocortistatin give rise to cyclic neuropeptide hormones through a series of posttranslational trimming steps, and the ‘NFFWK’ peptide is the only tryptic peptide derived from the mature hormone that is of sufficient length and distinct sequence to be readily identifiable by MS (Figure 2A). […] This conclusion was further corroborated by two additional PSMs that mapped to regions outside the SST14 neuropeptide sequence and one additional five amino acid peptide of the sequence ‘TFTSC’ that could be assigned (albeit not unambiguously) to the mature SST14 neuropeptide sequence itself.

“2,4-dienoyl-CoA reductase, mitochondrial: human brain protein” was tested, and the “Experiment III oAβ1-42-B/mAβ1-42-B Ratio” value [1] was 4.32.

`C[C@H](N)C(=O)NCC(=O)N[C@H]1CSSC[C@@H](C(=O)O)NC(=O)[C@H](CO)NC(=O)[C@H]([C@@H](C)O)NC(=O)[C@H](Cc2ccccc2)NC(=O)[C@H]([C@@H](C)O)NC(=O)[C@H](CCCCN)NC(=O)[C@H](Cc2c[nH]c3ccccc23)NC(=O)[C@H](Cc2ccccc2)NC(=O)[C@H](Cc2ccccc2)NC(=O)[C@H](CC(N)=O)NC(=O)[C@H](CCCCN)NC1=O` [SST14, somatostatin-14] gave a pEC50 [2] of 4.90.

In the case of “ATP synthase subunit beta, mitochondrial: human brain protein”, the “Experiment III oAβ1-42-B/mAβ1-42-B Ratio” value [1] was 2.61.

In the case of “Aβ1-40: synthetic human Aβ1-40, Anaspec AS-24236”, the “lag phase of Aβ1-40 aggregation” value ([3]; peptide alone) was 45 min.

With “CST17: preprocortistatin-derived regulatory peptide, Bachem H-5536” the “lag phase extension of Aβ (Aβ1-42) aggregation” value ([4]; 5 to 10 times higher peptide concentrations, SST14 not shown) was “approximately one hour”, the “concentration dependence of effect on Aβ1-42 aggregation” value ([4]; ThT, 37°C) was “concentration-dependent inhibition of Aβ1-42-dependent ThT fluorescence” and the “relative potency versus SST14 in interfering with Aβ1-42 aggregation” value ([4]; compared with SST14 (at 15 μM in ThT assay)) was “more potent in this regard than SST14; also recorded: even more pronounced effects on Aβ aggregation than SST14”. The “inhibition of Aβ1-42-dependent ThT incorporation” value ([4]; peptide 15 μM, 37°C, 25 μM ThT) was “completely abrogated ThT incorporation”, the “effect on oAβ1-42-induced tau hyperphosphorylation” value [5] was “did not prevent the anticipated tau hyperphosphosphorylation-inducing effect of oAβ1-42 exposure” and the “potentiation of tau hyperphosphorylation with monomeric Aβ1-42” value ([5]; pre-incubated peptide 4 µM + mAβ1-42 5 µM, 24 hr exposure) was “potentiate tau hyperphosphorylation”. For the same molecule, the “intensity of homodimeric Aβ1-42 bands” value ([6]; Western blot lanes 17-20) was “reduced”, the “size of SDS-resistant heterodimeric complex with mAβ1-42” value ([6]; Western blot, x-42 and 6E10 antibodies) was 5-6 kDa and the “detection of 50-60 kDa bands by antibody directed against C-terminus of Aβ1-42” value ([6]; boiled in SDS) was “escaped detection with an antibody directed against the C-terminus of Aβ1-42”. For the same molecule, the “SDS-stable complex with three Aβ1-42 peptides” value ([6]; Western blot) was “occasionally observed signals that migrated at molecular masses expected for SDS-stable complexes consisting of three Aβ1-42 peptides”, the “intensity of HMM 6E10 signals” value ([7]; 18 hr incubation, 6E10 Western blot) was “only very weak HMM signals” and the “concentration dependence of 6E10-reactive blot signals” value ([7]; 18 hr incubation, varying SST14 or CST17 concentration) was “inverse correlation”. The “masking of Aβ1-42 detection by antibodies 6E10, 4G8, 12F4” value ([7]; 18 hr incubation, 4G8 and 12F4 not shown) was “masked the ability of these antibodies to bind to Aβ1-42”, the “silver-stain Aβ1-42 signal” value ([7]; silver-stain of same fractions) was “relatively stronger Aβ1-42 signals” and the “lag phase extension of Aβ (Aβ1-40) aggregation” value ([3]; SST14 not shown) was “approximately one hour”.

In the case of “CST29: preprocortistatin-derived regulatory peptide, Bachem H-6458 (QEGAPPQQSARRDRMPCRNFFWKTFSSCK; ends and bridges not checked; cysteine pairing not given here; UniProt O00230 77-105, looked up)”, the “effect on oAβ1-42-induced tau hyperphosphorylation” value [5] was “did not prevent the anticipated tau hyperphosphosphorylation-inducing effect of oAβ1-42 exposure”.

In the case of “Carbohydrate kinase domain-containing protein: human brain protein”, the “Experiment II oAβ1-42-B/B Ratio” value [8] was 2.17 and the “Experiment III oAβ1-42-B/mAβ1-42-B Ratio” value [1] was 1.72.

Cathepsin D: human brain protein was tested, and the “Experiment III oAβ1-42-B/mAβ1-42-B Ratio” value [1] was 2.10.

For Cofilin-1: human brain protein, the “Experiment II oAβ1-42-B/B Ratio” value [8] was 1.75 and the “Experiment III oAβ1-42-B/mAβ1-42-B Ratio” value [1] was 5.34.

“Dihydropyrimidinase-related protein 1: human brain protein” was tested, and the “Experiment II oAβ1-42-B/B Ratio” value [8] was 1.39 and the “Experiment III oAβ1-42-B/mAβ1-42-B Ratio” value [1] was 3.71.

For “Dihydropyrimidinase-related protein 3: human brain protein”, the “Experiment II oAβ1-42-B/B Ratio” value [8] was 1.42 and the “Experiment III oAβ1-42-B/mAβ1-42-B Ratio” value [1] was 3.40.

In the case of “DnaJ homolog subfamily A member 2: human brain protein”, the “Experiment III oAβ1-42-B/mAβ1-42-B Ratio” value [1] was 6.10.

In the case of “Interleukin enhancer-binding factor 2: human brain protein”, the “Experiment III oAβ1-42-B/mAβ1-42-B Ratio” value [1] was 1.41.

NFFWK was tested, and the “capture by Aβ baits (iTRAQ signature ion intensity)” value [9] was “the free N-terminus is indeed essential for this peptide-peptide interaction” and the “binding preference for oligomeric versus monomeric Aβ1-42-biotin (in words)” value ([1]; Experiment III, human frontal lobe extract) was “binds preferentially to oligomeric (pre-aggregated) but not monomeric Aβ1-42-biotin”.

In the case of “Pyruvate kinase isozymes M1/M2: human brain protein”, the “Experiment II oAβ1-42-B/B Ratio” value [8] was 1.68 and the “Experiment III oAβ1-42-B/mAβ1-42-B Ratio” value [1] was 4.33.

For “Ras-related protein Rab-1A: human brain protein”, the “Experiment III oAβ1-42-B/mAβ1-42-B Ratio” value [1] was 3.28.

“SST28: longer bioactive version of somatostatin, Anaspec AS-22902 (SANSNPAMAPRERKAGCKNFFWKTFTSC; ends and bridges not checked; cysteine pairing not given here; UniProt P61278 89-116, looked up)” was tested, and the “effect on oAβ1-42-induced tau hyperphosphorylation” value [5] was “did not prevent the anticipated tau hyperphosphosphorylation-inducing effect of oAβ1-42 exposure”.

For “Transforming protein RhoA: human brain protein”, the “Experiment III oAβ1-42-B/mAβ1-42-B Ratio” value [1] was 5.74.

For [Arg8]-vasopressin [AVP], the “lag phase extension of Aβ1-42 aggregation” value ([4]; 15 μM SST14 (or control peptide), SEC-purified Aβ1-42, 25 μM ThT, 37°C, shaking 700 rpm) was “No delay was observed”, the “reduction in tau phosphorylation at AT8, pre-aggregated peptide alone” value (“reduction in tau phosphorylation at AT8” below) [5] was “not seen” and the “formation of 50-60 kDa Aβ1-42 bands (in words)” value ([6]; 18 hr co-incubation, 6E10) was “not seen in samples incubated either without these peptides or with AVP”. For the same molecule, the “SDS-stable complex with three Aβ1-42 peptides” value ([6]; Western blot) was “never observed in fractions lacking SST14 (or CST17) or containing AVP”.

In the case of bombesin, the “reduction in tau phosphorylation at AT8” value [5] was “not seen”.

“oxytocin: control neuropeptide, Anaspec AS-24275” was tested, and the “reduction in tau phosphorylation at AT8” value [5] was “not seen”.
